# Laboratory results taken from ChEMBL document CHEMBL4229401, “Synthesis and evaluation of a ring-constrained Hsp90 C-terminal inhibitor that exhibits neuroprotective activity” (Bioorg Med Chem Lett, 2018).
# The source made the active and inactive calls. The calls are words filed in the database; no cut-off is given here.
# Experiments:
# [1] = species: Rattus norvegicus; assay: Inhibition of C-terminal Hsp90 in rat 50B11 cells assessed as increase in Hsp70 expression at 0.1 to 1 uM after 24 hrs by Western blot analysis; type: cell-based
# [2] = species: Rattus norvegicus; assay: Neuroprotective activity against H2O2-induced mitochondrial dysfunction in rat 50B11 cells assessed as improvement in mitochondrial biogenesis by measuring increase in maximal respiratory capacity pretreated for 24 hrs followed by H2O2 challenge and measured after 2 hrs; type: functional, cell-based
Compound,inhibition [1],Activity [2]
CO[C@@H]1[C@@H](O)[C@@H](O)[C@H](Oc2ccc(CCNC(C)=O)c(-c3cccc(F)c3)c2)OC1(C)C,Active,Dose-dependent effect
CO[C@@H]1[C@@H](O)[C@@H](O)[C@H](Oc2ccc(CCNC(C)=O)c3c4cccc(F)c4c(=O)n(C)c23)OC1(C)C,Active,Dose-dependent effect
